Measured values from patent US9393221B2, “Methods and compounds for reducing intracellular lipid storage” (THE GENERAL HOSPITAL CORPORATION, priority 2011, dated 2016).
Structures can show the parent of a compound that is named as a salt.

Each compound was assayed on ATGL-KO iPSCs (assay: High throughput iPSC chemical screening, Oil Red O (ORO) lipid accumulation). Conditions: not given.
Type: cell-based, mouse
Throughout, for Z-score: test concentration or dose not given here.

In order of falling Z-score:
1. CNC(=O)Oc1ccc2c(c1)[C@]1(C)CCN(C)[C@@H]1N2C.CNC(=O)Oc1ccc2c(c1)[C@]1(C)CCN(C)[C@@H]1N2C.O=S(=O)(O)O [Eserine sulfate, physostigmine sulfate]  0.899
2. C[C@]12CC[C@H](O)C[C@@H]1CC[C@@H]1[C@@H]2CC[C@]2(C)C(=O)CC[C@@H]12 [Epiandrosterone]  −0.835

Same assay, conditions: glycolytic switch compounds

In order of rising “Rank in normalized ORO score from screen” value:
1. CC(NCCC(c1ccccc1)c1ccccc1)c1ccccc1 (centres unmarked) [Fendiline hydrochloride, reference compound]  1
2. O=c1c2ccccc2[se]n1-c1ccccc1 [Ebselen]  52
3. C#C[C@]1(OC(C)=O)CC[C@H]2[C@@H]3CCC4=C[C@@H](OC(C)=O)CC[C@@H]4[C@H]3CC[C@@]21C [Ethynodiol diacetate]  61

Same assay, conditions: normalized ORO level vs DMSO-treated cells; compound present during 7 days differentiation, 96-well; negative = decrease in lipid accumulation

In order of falling Z-score:
1. COc1cc([C@@H]2c3cc4c(cc3[C@@H](O[C@@H]3O[C@@H]5CO[C@@H](C)O[C@H]5[C@H](O)[C@H]3O)[C@H]3COC(=O)[C@H]23)OCO4)cc(OC)c1O [Etoposide]  39.4033
2. Cc1c2ccncc2c(C)c2c1[nH]c1ccccc12 [Ellipticine]  36.711
3. CC[C@H]1CN2CCc3cc(OC)c(OC)cc3[C@@H]2C[C@@H]1C[C@H]1NCCc2cc(OC)c(OC)cc21 [Emetine dihydrochloride]  32.7653
4. COc1cccc2c1C(=O)c1c(O)c3c(c(O)c1C2=O)C[C@@](O)(C(=O)CO)C[C@@H]3O[C@H]1C[C@H](N)[C@H](O)[C@H](C)O1 [Doxorubicin hydrochloride]  32.6438
5. CS(=O)(=O)c1ccc([C@@H](O)[C@@H](CF)NC(=O)C(Cl)Cl)cc1 [Florfenicol]  31.4352
6. CCOc1ccc(Cc2nccc3cc(OCC)c(OCC)cc23)cc1OCC [Ethaverine hydrochloride]  17.3528
7. COC(=O)Nc1nc2ccc(Sc3ccccc3)cc2[nH]1 [Fenbendazole]  16.3822
8. C[C@H]1c2cccc(O)c2C(=O)C2=C(O)[C@]3(O)C(=O)C(C(N)=O)=C(O)[C@@H](N(C)C)[C@@H]3[C@@H](O)[C@@H]21 [Doxycycline hydrochloride]  2.356
9. CCc1cccc2c3c([nH]c12)C(CC)(CC(=O)O)OCC3 (centres unmarked) [Etodolac]  1.6287
10. CCOC(=O)C1=C(C)NC(C)=C(C(=O)OC)C1c1cccc(Cl)c1Cl (centres unmarked) [Felodipine]  1.337
11. CC[C@H]1OC(=O)[C@H](C)[C@@H](O[C@H]2C[C@@](C)(OC)[C@@H](O)[C@H](C)O2)[C@H](C)[C@@H](O[C@@H]2O[C@H](C)C[C@H](N(C)C)[C@H]2O)[C@](C)(O)C[C@@H](C)C(=O)[C@H](C)[C@@H](O)[C@]1(C)O [Erythromycin]  1.131
12. CCC1(C)CC(=O)NC1=O (centres unmarked) [Ethosuximide]  1.076
13. CC(C)(C)NC(=O)[C@H]1CC[C@H]2[C@@H]3CC[C@H]4NC(=O)C=C[C@]4(C)[C@H]3CC[C@]12C [Finasteride]  1.067
14. Oc1cc(O)c2c(c1)O[C@H](c1ccc(O)c(O)c1)[C@H](O)C2 [Epicatechin-(−)]  0.9251
15. CC1CC(OC(=O)C(O)c2ccccc2)CC(C)(C)N1C (centres unmarked) [Eucatropine hydrochloride]  0.9133
16. COc1cc(C(=O)OC2CC3CCC(C2)N3C)ccc1O (centres unmarked) [Fillalbin]  0.7621
17. CC(C)c1c(CN(C)C(C)Cc2ccccc2)n(C)n(-c2ccccc2)c1=O (centres unmarked) [Famprofazone]  0.6911
18. O=C(Cn1ccnc1[N+](=O)[O-])NCCO [Etanidazole]  0.6681
19. Cc1onc(-c2c(F)cccc2Cl)c1C(=O)N[C@@H]1C(=O)N2[C@@H]1SC(C)(C)[C@@H]2C(=O)O [Flucloxacillin sodium]  0.5241
20. CC[N+](C)(C)c1cccc(O)c1 [Edrophonium chloride]  0.4533
21. Cc1c(-c2ccccc2)oc2c(C(=O)OCCN3CCCCC3)cccc2c1=O [Flavoxate hydrochloride]  0.3535
22. O=C1NCC2(CCN(CCc3ccccc3)CC2)O1 [Fenspiride hydrochloride]  0.2827
23. COc1c2c(nc3ccccc13)OC(C(C)(O)CO)C2 (centres unmarked) [Dubinidine]  0.2385
24. CCOC(=O)c1cncn1[C@H](C)c1ccccc1 [Etomidate]  0.2274
25. CCOC(=O)[C@H](CCc1ccccc1)N[C@@H](C)C(=O)N1CCC[C@H]1C(=O)O [Enalapril maleate]  0.1645
26. CCNCC(O)c1cccc(O)c1 (centres unmarked) [Etilefrine hydrochloride]  0.1398
27. CC[C@]12CCCN3CCc4c(n(c5ccccc45)[C@](O)(C(=O)OC)C1)[C@@H]32 [Epivincamine]  0.1161
28. CN(C)CCOC(C)(c1ccccc1)c1ccccn1 (centres unmarked) [Doxylamine succinate]  0.07172
29. C[C@]12CC[C@@H]3c4ccc(O)cc4CC[C@H]3[C@@H]1C[C@@H](O)[C@@H]2O [Estriol]  0.06999
30. O=S(=O)(O)c1cc(O)ccc1O [Ethamsylate]  0.04738
31. C=CCOC(Cn1ccnc1)c1ccc(Cl)cc1Cl (centres unmarked) [Enilconazole]  −0.0014
32. CCN(CC)CCOC(=O)C(c1ccccc1)C1CCCCC1 (centres unmarked) [Drofenine hydrochloride]  −0.0455
33. CCOc1ccc2c(c1)C(C)=CC(C)(C)N2 [Ethoxyquin]  −0.0471
34. CC(O)(P(=O)(O)O)P(=O)(O)O [Etidronic acid, disodium salt]  −0.1368
35. C#C[C@]1(O)CC[C@H]2[C@@H]3CCC4=CC(=O)CC[C@]4(C)[C@H]3CC[C@@]21C [Ethisterone]  −0.2541
36. CC(C)C[C@H]1C(=O)N2CCC[C@H]2[C@]2(O)O[C@](NC(=O)[C@@H]3C=C4c5cccc6[nH]cc(c56)C[C@H]4N(C)C3)(C(C)C)C(=O)N12 [Ergocryptine-alpha]  −0.2816
37. C=C(CC)C(=O)c1ccc(OCC(=O)O)c(Cl)c1Cl [Ethacrynic acid]  −0.302
38. COc1c2ccoc2nc2c(OC)c(OCC(O)C(C)(C)O)ccc12 (centres unmarked) [Evoxine]  −0.3336
39. O=C(O)CCC(=O)c1ccc(-c2ccccc2)cc1 [Fenbufen]  −0.3877
40. CC(C(=O)O)c1cccc(Oc2ccccc2)c1 (centres unmarked) [Fenoprofen calcium salt dihydrate]  −0.4668
41. CCN(CC)C(=O)c1ccc(O)c(OC)c1 [Ethamivan]  −0.565
42. O=C(CCCN1CC=C(n2c(=O)[nH]c3ccccc32)CC1)c1ccc(F)cc1 [Droperidol]  −0.5996
43. CC[C@@H](CO)NCCN[C@@H](CC)CO [Ethambutol dihydrochloride]  −0.6303
44. COc1cc(C)nc(-n2nc(C)cc2OC)n1 [Epirizole]  −0.7031
45. CC(=O)[C@H]1CC[C@H]2[C@@H]3C=CC4=CC(=O)CC[C@@]4(C)[C@@H]3CC[C@]12C [Dydrogesterone]  −0.7044
46. CCN1C(=O)NC(c2ccccc2)C1=O (centres unmarked) [Ethotoin]  −0.7327
47. CCn1cc(C(=O)O)c(=O)c2cc(F)c(N3CCNCC3)nc21 [Enoxacin]  −0.7386
48. CC(Cc1ccc(O)cc1)NCC(O)c1cc(O)cc(O)c1 (centres unmarked) [Fenoterol hydrobromide]  −0.7445
49. O=C(O)c1ccccc1Nc1cccc(C(F)(F)F)c1 [Flufenamic acid]  −0.8139
50. Cn1c(=O)c2c(ncn2CCO)n(C)c1=O [Etofylline]  −0.8406
51. Clc1ccc(COC(Cn2ccnc2)c2ccc(Cl)cc2Cl)cc1 (centres unmarked) [Econazole nitrate]  −0.8488
52. Nc1[nH]c(=O)ncc1F [Flucytosine]  −0.8908
53. O=c1ccc2cc(O)c(O)cc2o1 [Esculetin]  −0.9295
54. C#C[C@]1(O)CC[C@H]2[C@@H]3CCc4cc(OC)ccc4[C@H]3CC[C@@]21C [Ethynylestradiol 3-methyl ether]  −0.93
55. O=C(O)Cc1ccc(-c2ccccc2)cc1 [Felbinac]  −0.9529
56. C[C@]12CC[C@@H]3c4ccc(O)cc4CC[C@H]3[C@@H]1CC[C@@H]2O [Estradiol-17 beta]  −0.9541
57. O=C(COc1ccc(Cl)cc1)N1CCN(Cc2ccc3c(c2)OCO3)CC1 [Fipexide hydrochloride]  −0.9747
58. CC(=O)OCC(=O)[C@@]1(O)CC[C@H]2[C@@H]3CCC4=CC(=O)CC[C@]4(C)[C@@]3(F)[C@@H](O)C[C@@]21C [Fludrocortisone acetate]  −0.9911
59. CCc1cc(C(N)=S)ccn1 [Ethionamide]  −0.9932
60. O=C(NCC1CCCCN1)c1cc(OCC(F)(F)F)ccc1OCC(F)(F)F (centres unmarked) [Flecainide acetate]  −0.9948
61. CN(C)CCC=C1c2ccccc2COc2ccccc21 [Doxepin hydrochloride]  −1.0091
62. COc1cc2nc(N3CCN(C(=O)C4COc5ccccc5O4)CC3)nc(N)c2cc1OC (centres unmarked) [Doxazosin mesylate]  −1.0121
63. CCc1cccc(CC)c1NC(=O)CN(CC(=O)O)CC(=O)O [Etifenin]  −1.0427
64. C[C@]12CC[C@H]3C(=CCc4cc(O)ccc43)[C@@H]1CCC2=O [Equilin]  −1.0652
65. NC(N)=Nc1nc(CSCCC(N)=NS(N)(=O)=O)cs1 [Famotidine]  −1.1457
66. O=c1ccc2cc(O[C@@H]3O[C@H](CO)[C@@H](O)[C@H](O)[C@H]3O)c(O)cc2o1 [Esculin Hydrate]  −1.2808
67. CCCCOc1ccc(C(=O)CCN2CCCCC2)cc1 [Dyclonine hydrochloride]  −1.4276
68. C#C[C@]1(OC(C)=O)CC[C@H]2[C@@H]3CCC4=C[C@@H](OC(C)=O)CC[C@@H]4[C@H]3CC[C@@]21C [Ethynodiol diacetate]  −1.4458
69. O=c1c2ccccc2[se]n1-c1ccccc1 [Ebselen]  −1.5273
70. CC(C)OC(=O)C(C)(C)Oc1ccc(C(=O)c2ccc(Cl)cc2)cc1 [Fenofibrate]  −1.6051
71. CCN(CC)C(C)CN1c2ccccc2Sc2ccccc21 (centres unmarked) [Ethopropazine hydrochloride]  −1.7382
72. C[C@]12C[C@H]3S[C@H]3C[C@@H]1CC[C@@H]1[C@@H]2CC[C@]2(C)[C@@H](O)CC[C@@H]12 [Epitiostanol]  −1.7564
73. C[C@]12CC[C@@H]3c4ccc(OS(=O)(=O)O)cc4CC[C@H]3[C@@H]1CCC2=O [Estropipate]  −1.7711
74. C[C@]12CC[C@@H]3c4ccc(O)cc4CC[C@H]3[C@@H]1CCC2=O [Estrone]  −1.8166
75. CC(NCCC(c1ccccc1)c1ccccc1)c1ccccc1 (centres unmarked) [Fendiline hydrochloride, reference compound]  −2.53
